Measurements from article PMC11188305, “Reproductive and fetal toxicity studies of histamine H3 receptor antagonist DL76 used in mice to prevent maximal electroshock-induced seizure” (Frontiers in Pharmacology, 2024).
Read-outs that look alike come from different tables or passages of the source.

What was measured:
[1] = target: T1, hH1R (Homo sapiens, UniProt P35367); assay: hH1R radioligand binding, [3H]pyrilamine in CHO K1 cells; settings: protocol of Lazewska et al., 2017
T1 construct: expressed in transfected cells; host or cells: CHO K1 cells
T1 sequence (P35367 whole entry): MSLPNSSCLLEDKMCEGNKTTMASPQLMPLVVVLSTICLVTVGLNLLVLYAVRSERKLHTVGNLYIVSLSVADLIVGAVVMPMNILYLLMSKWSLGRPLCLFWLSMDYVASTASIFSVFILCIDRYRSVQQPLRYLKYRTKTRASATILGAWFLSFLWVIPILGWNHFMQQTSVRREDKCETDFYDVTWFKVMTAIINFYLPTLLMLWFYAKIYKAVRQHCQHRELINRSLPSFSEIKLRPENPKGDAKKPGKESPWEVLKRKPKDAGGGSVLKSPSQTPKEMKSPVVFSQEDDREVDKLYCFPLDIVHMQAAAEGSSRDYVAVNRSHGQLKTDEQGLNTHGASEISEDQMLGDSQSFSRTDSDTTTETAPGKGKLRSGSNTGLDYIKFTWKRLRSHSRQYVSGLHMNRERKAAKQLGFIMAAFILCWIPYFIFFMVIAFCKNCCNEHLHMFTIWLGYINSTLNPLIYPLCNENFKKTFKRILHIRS

[2] = target: T2, hH2R (Homo sapiens, UniProt P25021); assay: hH2R radioligand binding, [125I]APT in CHO cells (Eurofins Cerep)
T2 construct: host or cells: CHO cells
T2 sequence (P25021 whole entry): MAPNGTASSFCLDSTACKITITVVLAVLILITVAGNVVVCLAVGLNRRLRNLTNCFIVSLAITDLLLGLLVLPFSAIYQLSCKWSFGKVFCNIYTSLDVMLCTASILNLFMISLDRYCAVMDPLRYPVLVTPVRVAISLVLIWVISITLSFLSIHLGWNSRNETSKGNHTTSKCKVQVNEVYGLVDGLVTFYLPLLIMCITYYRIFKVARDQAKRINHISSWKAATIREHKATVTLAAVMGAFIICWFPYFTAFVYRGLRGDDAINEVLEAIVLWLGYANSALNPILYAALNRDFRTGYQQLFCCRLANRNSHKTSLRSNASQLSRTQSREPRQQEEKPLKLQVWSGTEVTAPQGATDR

[3] = target: adrenergic α2 receptor; assay: adrenergic α2 receptor binding, [3H]clonidine in rat cerebral cortex; settings: protocol of Canale et al., 2021
[4] = target: T3, hN neuronal α4β2 (Homo sapiens, UniProt P17787+P43681); assay: hN neuronal α4β2 binding, [3H]cystine in SH-SY5Y cells (Eurofins Cerep)
T3 construct: host or cells: SH-SY5Y cells
T3 sequence (P43681 29-627 limits assumed): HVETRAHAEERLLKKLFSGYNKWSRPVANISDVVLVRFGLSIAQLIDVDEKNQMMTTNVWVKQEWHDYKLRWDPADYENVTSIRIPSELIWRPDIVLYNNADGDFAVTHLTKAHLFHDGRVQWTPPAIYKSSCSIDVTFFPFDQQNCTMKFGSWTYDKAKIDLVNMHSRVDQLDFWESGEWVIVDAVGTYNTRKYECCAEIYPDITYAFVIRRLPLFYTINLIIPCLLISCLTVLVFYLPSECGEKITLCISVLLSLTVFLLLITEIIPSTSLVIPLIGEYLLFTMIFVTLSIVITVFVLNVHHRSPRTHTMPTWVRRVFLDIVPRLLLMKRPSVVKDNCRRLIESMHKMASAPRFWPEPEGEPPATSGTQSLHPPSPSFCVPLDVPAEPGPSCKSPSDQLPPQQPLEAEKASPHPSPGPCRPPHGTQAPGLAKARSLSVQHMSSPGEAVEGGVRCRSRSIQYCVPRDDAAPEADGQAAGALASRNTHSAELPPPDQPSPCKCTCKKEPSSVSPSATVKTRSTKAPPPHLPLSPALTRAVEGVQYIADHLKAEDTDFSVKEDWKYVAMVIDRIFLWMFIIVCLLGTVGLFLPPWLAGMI
T3 sequence (P17787 26-502): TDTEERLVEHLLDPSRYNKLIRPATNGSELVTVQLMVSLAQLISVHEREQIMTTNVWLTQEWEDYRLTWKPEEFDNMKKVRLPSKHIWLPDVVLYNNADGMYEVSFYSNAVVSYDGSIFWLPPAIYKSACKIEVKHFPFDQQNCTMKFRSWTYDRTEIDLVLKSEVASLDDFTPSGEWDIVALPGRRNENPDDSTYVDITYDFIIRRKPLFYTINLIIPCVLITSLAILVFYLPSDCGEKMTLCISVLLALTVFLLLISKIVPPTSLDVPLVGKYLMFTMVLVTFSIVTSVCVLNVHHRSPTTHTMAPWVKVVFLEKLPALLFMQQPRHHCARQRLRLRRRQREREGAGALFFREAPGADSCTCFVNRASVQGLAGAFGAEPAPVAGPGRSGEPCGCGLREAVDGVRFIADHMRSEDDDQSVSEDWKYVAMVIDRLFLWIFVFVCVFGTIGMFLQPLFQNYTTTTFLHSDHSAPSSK

[5] = test system: MES-induced seizures in mice; assay: Maximal electroshock (MES)-induced seizure, duration of tonic hind limb extension (THLE); format: in vivo, C57BL/6J mice; settings: for protection compared with reference drug VPA: DL76 60 mg/kg i.p. vs VPA 300 mg/kg; for mean difference in THLE: DL76 60 mg/kg vs saline-, DL76 7.5, 15, 30 mg/kg groups, p < 0.05
Description: As previously described and with a slight modification in the intensity applied, seizures were elicited in mice with a 50-Hz alternating current of 120 mA intensity ([Kaminski et al., 2015]; [Song et al., 2020]; [Xiao et al., 2021]; [Hua et al., 2023]). The current was applied through ear electrodes for 0.2 s. Protection against the spread of MES-induced convulsion was defined as the abolition of the tonic hind limb extension (THLE) component of the seizure ([Kaminski et al., 2015]; [Song et al., 2020]; [Xiao et al., 2021]; [Hua et al., 2023]). The animals were divided into the following experimental groups, with eight mice in each: the control group injected with saline, the positive control group injected with 300 mg/kg of VPA (the minimal dose of VPA that protected animals against the spread of MES-induced convulsions without mortality in mice) ([Sadek et al., 2015]; [Bastaki et al., 2018]), and four groups that were administered the test compound DL76 at doses of 7.5 mg/kg, 15 mg/kg, 30 mg/kg, or 60 mg/kg. All drugs were administered 30–45 min before the MES challenge. In a further group of eight mice, the most promising and protective dose of DL76 (60 mg/kg, i.p.) was co-injected with RAM (10 mg/kg, i.p.), 30 min apart and 15 min prior to the MES test. Protection against the spread of MES-induced convulsion was defined as the abolition of the THLE component of the convulsion ([Sadek et al., 2015]; [Alachkar et al., 2018]; [Bastaki et al., 2018]).
(§1) Statistical analyses employed SPSS 26.0 (IBM Middle East, Dubai, UAE). Data were presented as means ± SEM. […] Fetal abnormality data were presented as counts and percentages. Fisher’s exact test compared the percentages of abnormalities between the control group (saline) and the different dose groups. All tests were two-tailed, and significance was set at p < 0.05.

[6] = test system: C57/B6 mouse embryos; assay: Skeletal malformations (double staining of fetuses); format: in vivo, C57BL/6J mice
Description: After isolating fetuses from viscera and skin, they underwent a fat-removal process by immersion in acetone for 1–3 days. The resulting transparent specimens underwent a sequence of glycerin solutions (50% and 80%) before being finally stored in 100% glycerin for observation of malformations using a stereo dissecting microscope ([McLeod, 1980]; [Sterz and Lehmann, 1985]; [Abdulrazzaq et al., 1997]; [Bass et al., 2020]). Following this, specimens were processed and stained with Alizarin Red-S and Alcian blue ([McLeod, 1980]; [Sterz and Lehmann, 1985]; [Abdulrazzaq et al., 1997]; [Bass et al., 2020]) to identify bone and cartilage deformities.
as §1

[7] = target: hH3R; design: method as in Lazewska et al. (2006); settings: CHO K1 cells; [125I]Iodoproxyfan binding assay; ref Lazewska et al. (2006); cited from earlier work
[8] = target: hH4R; design: method as in Lazewska et al. (2020) and Canale et al. (2021); settings: Sf9 cells; [3H]histamine; ref Lazewska et al. (2020) and Canale et al. (2021); cited from earlier work
[9] = test system: H3R; design: method as in Lazewska et al. (2006); settings: after p.o. administration to mice; ref Lazewska et al. (2006); cited from earlier work
[10] = design: method as in Szafarz et al., 2015; settings: ref Szafarz et al., 2015, cited from earlier work
[11] = test system: several cell lines; design: method as in Canale et al., 2021; settings: ref Canale et al., 2021; cited from earlier work
[12] = design: method as in Canale et al., 2021; settings: ref Canale et al., 2021; cited from earlier work

With CC(C)(C)c1ccc(OCCCN2CCCCC2)cc1 [DL76, 1-(3-(4-tert-butyl-phenoxy)propyl) piperidine] the Ki [1] was 849 ± 67 nM, the inhibition at 1 µM [2] was 2.8% and the Ki [3] was > 5000 nM. The inhibition at 1 µM [4] was 3%, the “difference of protective effects between male and female mice” value ([5]; DL76 7.5, 15, 30 and 60 mg/kg i.p., p = 0.70, 0.685, 0.151, 0.398) was “no significant differences” and the “THLE compared with reference drug VPA (300 mg/kg, i.p.)” value ([5]; both sexes of adult mice, DL76 30 mg/kg and 60 mg/kg) was “no significant differences”. For the same molecule, the “THLE values compared with VPA” value ([5]; both sexes of adult mice, lower doses of DL76 7.5 mg/kg and 15 mg/kg i.p.) was “significant difference”, the “mean difference, saline + saline vs. DL76 + RAM” value ([5]; female adult mice, DL76 60 mg/kg + RAM 10 mg/kg i.p., p = 0.17) was 1.33 and the “protection after co-administration of RAM” value ([5]; female adult mice, DL76 60 mg/kg i.p. + RAM 10 mg/kg i.p. 15 min before MES) was “abrogated”. The “protection compared with reference drug VPA” value ([5]; female adult mice, p = 0.72) was “comparable”, the “mean difference in THLE” value ([5]; female adult mice, 2nd of three printed values) was 10.63 s and the “mean difference in THLE” value ([5]; female adult mice, 3rd of three printed values) was 3.13 s. The “protection against MES-induced convulsions” value ([5]; female adult mice, DL76 7.5–60 mg/kg i.p.) was “significantly protected”, the “protection against MES-induced seizures” value ([5]; female and male mice, 7.5, 15, 30 and 60 mg/kg i.p., acute) was “significant and dose-dependent protection” and the “mean difference of THLE, saline vs. DL76+RAM” value ([5]; male adult mice, DL76 60 mg/kg + RAM 10 mg/kg i.p., p = 0.094) was 2.5 s. For the same molecule, the “protection after co-injection with H3R agonist RAM” value ([5]; male adult mice, DL76 60 mg/kg i.p. + RAM 10 mg/kg i.p. 15 min before MES) was “reversed”, the “mean difference of THLE” value ([5]; male adult mice, DL76 60 mg/kg i.p. vs DL76 (7.5 mg/kg)-treated group) was 7.25 s and the “mean difference of THLE” value ([5]; male adult mice, DL76 60 mg/kg i.p. vs DL76 (15 mg/kg)-treated group) was 8.88 s. The “mean difference of THLE” value ([5]; male adult mice, DL76 60 mg/kg i.p. vs DL76 (30 mg/kg)-treated group) was 10.75 s, the “protection compared with reference drug VPA” value ([5]; male adult mice, p = 1.000) was “comparable” and the “protective effect on MES-induced convulsions vs saline” value ([5]; male adult mice, all doses 7.5, 15, 30, 60 mg/kg i.p., all p <0.0001) was “substantial protective effects”. The femur length ([6]; 7.5 mg/kg and 60 mg/kg groups) was “significantly decreased”, the “tibia and fibula lengths vs controls” value ([6]; 7.5 mg/kg, 30 mg/kg and 60 mg/kg groups) was “significantly decreased” and the “mean crown-to-rump length vs control groups” value ([6]; 7.5 mg/kg-, 30 mg/kg- and 60 mg/kg-treated groups) was “decreased significantly”. The “humerus and ulna lengths” value ([6]; 30 mg/kg and 60 mg/kg groups) was “reduced”, the radius length ([6]; 30 mg/kg group only) was “significant decrease” and the femur length ([6]; 30 mg/kg group, p = 0.06) was “non-significant decrease”. The “incidence of lumbar ribs vs saline-treated control” value ([6]; DL76-treated group) was “not significantly different”, the “fifth sternebrium, absence or occurrence of hypoplasia, vs control” value ([6]; DL76-treated groups) was “no significant difference” and the “skull or facial bones” value ([6]; all groups) was “No significant differences”. The “vertebrae: number of centra or number of unossified/hypoplastic bodies” value ([6]; all the DL-76-treated groups) was “no differences”, the “crown–rump length and lengths of the long bones of the extremities” value ([6]; higher doses of 30 mg/kg, 60 mg/kg and 15 mg/kg × 3) was “seemed to be affected” and the Ki [7] was 22 nM. The Ki [8] was 66000 nM, the “ED50, in vivo H3R antagonist potency” value [9] was 2.8 ± 0.4 mg/kg and the “AUC0→∞” value ([10]; dose 3 mg/kg) was 298 ng◦h/mL. For the same molecule, the C0 ([10]; dose 3 mg/kg) was 564 ng/mL, the “AUC0→∞” value ([10]; dose 6 mg/kg) was 685 ng◦h/mL and the C0 ([10]; dose 6 mg/kg) was 653 ng/mL. For the same molecule, the “concentrations in cortex, hippocampus and striatum higher than in whole brain tissues” value ([10]; experimental animals) was 44%, the in vitro toxicity [11] was “without inducing in vitro toxicity” and the antiparkinsonian effects [12] was “antiparkinsonian effects”.
